Measured values: ChEMBL document CHEMBL3400025, “Synthesis, structural analysis and antitumor activity of novel 17α-picolyl and 17(E)-picolinylidene A-modified androstane derivatives” (Bioorg Med Chem, 2015)

Columns and labels:
MDA-MB-231 = assay: Antiproliferative activity against ER negative human MDA-MB-231 cells assessed as inhibition of cell growth after 48 hrs by MTT assay; assay type: functional, cell-based; settings: MDA-MB-231, 48 h
MCF7 [1] = assay: Antiproliferative activity against ER positive human MCF7 cells assessed as inhibition of cell growth after 48 hrs by MTT assay; assay type: functional, cell-based; settings: MCF7, 48 h
[2] = Antiproliferative activity against human PC3 cells assessed as inhibition of cell growth after 48 hrs by MTT assay; assay type: functional, cell-based; settings: PC-3, 48 h
HeLa = assay: Antiproliferative activity against human HeLa cells assessed as inhibition of cell growth after 48 hrs by MTT assay; assay type: functional, cell-based
A549 = assay: Antiproliferative activity against human A549 cells assessed as inhibition of cell growth after 48 hrs by MTT assay; assay type: functional, cell-based; settings: A549, 48 h
HT-29 = assay: Antiproliferative activity against human HT-29 cells assessed as inhibition of cell growth after 48 hrs by MTT assay; assay type: functional, cell-based; settings: HT-29, 48 h
MRC5 = assay: Antiproliferative activity against human MRC5 cells assessed as inhibition of cell growth after 48 hrs by MTT assay; assay type: functional, cell-based; settings: MRC5, 48 h
MCF7 [3] = assay: Cell cycle arrest in human MCF7 cells assessed as cells accumulation at G0/G1 phase at IC50 concentration after 48 hrs by flow cytometry (reference value: 47.55%); assay type: functional
MCF7 [4] = assay: Cell cycle arrest in human MCF7 cells assessed as cells accumulation at S phase at IC50 concentration after 48 hrs by flow cytometry (reference value: 29.30%); assay type: functional
MCF7 [5] = assay: Cell cycle arrest in human MCF7 cells assessed as cells accumulation at G2/M phase at IC50 concentration after 48 hrs by flow cytometry (Rvb =21.32 %); assay type: functional
MCF7 [6] = assay: Cell cycle arrest in human MCF7 cells assessed as cells accumulation at subG1 phase at IC50 concentration after 48 hrs by flow cytometry (Rvb =1.83 %); assay type: functional
MCF7 [7] = assay: Induction of apoptosis in human MCF7 cells assessed as apoptotic morphological changes at IC50 concentration after 48 hrs by light microscopy; assay type: functional

Compound	IC50 (MDA-MB-231)	IC50 (MCF7 [1])	IC50 [2]	IC50 (HeLa)	IC50 (A549)	IC50 (HT-29)	IC50 (MRC5)	Activity (MCF7 [3])	Activity (MCF7 [4])	Activity (MCF7 [5])	Activity (MCF7 [6])	Activity (MCF7 [7])
C[C@]12CC[C@H](O)CC1=CC[C@@H]1[C@@H]2CC[C@]2(C)/C(=C/c3ccccn3)CC[C@@H]12	> 100 µM	> 100 µM	> 100 µM	> 100 µM	> 100 µM	> 100 µM	> 100 µM					
C[C@]12CCC(=O)C(O)=C1CC[C@@H]1[C@@H]2CC[C@]2(C)C(=O)CC[C@@H]12 [FORMESTANE]	> 100 µM	55.5 µM	48.4 µM		> 100 µM	> 100 µM	> 100 µM	54.8%	19.48%	24.54%	1.18%	11.5%
C[C@]12CCC(=O)C=C1CC[C@@H]1[C@@H]2CC[C@@]2(C)[C@H]1CC[C@@]2(O)Cc1ccccn1	> 100 µM	> 100 µM	> 100 µM	57.8 µM	57.5 µM	> 100 µM	> 100 µM					
C[C@]12CC[C@H](O)CC1=CC[C@@H]1[C@@H]2CC[C@@]2(C)[C@H]1CC[C@@]2(O)Cc1ccccn1	> 100 µM	96.1 µM	6.3 µM	75.2 µM	> 100 µM	48.2 µM	> 100 µM					
C[C@]12C/C(=N/O)C(=O)C=C1CC[C@@H]1[C@@H]2CC[C@@]2(C)[C@H]1CC[C@@]2(O)Cc1ccccn1	> 100 µM	51.3 µM	> 100 µM	> 100 µM	> 100 µM	> 100 µM	> 100 µM					
C[C@]12C/C(=C/O)C(=O)C=C1CC[C@@H]1[C@@H]2CC[C@]2(C)/C(=C/c3ccccn3)CC[C@@H]12	> 100 µM	> 100 µM	> 100 µM	> 100 µM	> 100 µM	> 100 µM	> 100 µM					
COc1cccc2c1C(=O)c1c(O)c3c(c(O)c1C2=O)C[C@@](O)(C(=O)CO)C[C@@H]3O[C@H]1C[C@H](N)[C@H](O)[C@H](C)O1 [DOXORUBICIN]	0.75 µM	0.12 µM			0.32 µM	7.86 µM						
C[C@]12CCC(=O)C=C1CC[C@@H]1[C@@H]2CC[C@]2(C)/C(=C/c3ccccn3)CC[C@@H]12	> 100 µM	> 100 µM		> 100 µM	> 100 µM	> 100 µM	> 100 µM					
C[C@]12C/C(=N\O)C(=O)c3noc(c31)C[C@@H]1[C@@H]2CC[C@@]2(C)[C@H]1CC[C@@]2(O)Cc1ccccn1	50.4 µM	25.3 µM	6.6 µM	> 100 µM	> 100 µM	> 100 µM	> 100 µM					
C[C@]12CCNC(=O)C=C1CC[C@@H]1[C@@H]2CC[C@]2(C)/C(=C/c3ccccn3)CC[C@@H]12	12.7 µM	32.2 µM	60.1 µM	> 100 µM	19.8 µM	> 100 µM	> 100 µM					
C[C@]12C/C(=C/O)C(=O)C=C1CC[C@@H]1[C@@H]2CC[C@@]2(C)[C@H]1CC[C@@]2(O)Cc1ccccn1	19 µM	34.4 µM	> 100 µM	> 100 µM	> 100 µM	> 100 µM	> 100 µM					
C[C@]12C/C(=N/O)C(=O)/C(=N\O)C1=CC[C@@H]1[C@@H]2CC[C@@]2(C)[C@H]1CC[C@@]2(O)Cc1ccccn1	1.7 µM	40.1 µM	8.7 µM	81.8 µM	10.3 µM	56 µM	> 100 µM	47.66%	29.03%	21.23%	2.08%	12.2%
C[C@]1(CC#N)C(C#N)=CC[C@@H]2[C@@H]1CC[C@@]1(C)[C@H]2CC[C@@]1(O)Cc1ccccn1	7.9 µM	18.2 µM	31.5 µM	> 100 µM	> 100 µM	71.8 µM	> 100 µM	46.06%	31.34%	21.12%	1.48%	
